Reference: patent publication US10112940B2, “Histone demethylase inhibitors” (Celgene Quanticel Research, Inc., priority 2014, dated 2018)
pIC50: −log10 of the molar value. Like-named read-outs stand apart in the source and are kept apart here.

Assays:
[1] = molecular target: JMJD2C (Homo sapiens (Human), UniProt Q9H3R0); experiment: JMJD2C in vitro enzyme inhibition assay (TR-FRET); assay type: biochemical; settings: 0.3 nM JMJD2C, 300 nM H3K9me3-biotin peptide, 2 μM alpha-ketoglutaric acid, 30 minutes
Sequence of JMJD2C (Q9H3R0 2-372): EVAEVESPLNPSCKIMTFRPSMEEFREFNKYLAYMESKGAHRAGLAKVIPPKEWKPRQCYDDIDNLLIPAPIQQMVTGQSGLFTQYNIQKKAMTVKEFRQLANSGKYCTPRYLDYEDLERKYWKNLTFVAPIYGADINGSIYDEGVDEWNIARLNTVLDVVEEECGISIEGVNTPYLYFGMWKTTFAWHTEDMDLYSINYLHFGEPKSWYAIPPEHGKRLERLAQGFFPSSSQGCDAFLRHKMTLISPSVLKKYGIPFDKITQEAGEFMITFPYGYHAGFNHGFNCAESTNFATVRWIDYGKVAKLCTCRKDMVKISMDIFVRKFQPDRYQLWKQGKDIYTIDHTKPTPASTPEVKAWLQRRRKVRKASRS
Method in brief: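 Baculovirus-expressed JMJD2C (aa 2-372), 0.3 nM, with 300 nM biotin-H3K9me3 peptide and 2 μM alpha-ketoglutarate in HEPES pH 7.3 with ascorbate and Fe(II), 30 min at room temperature, 11-point inhibitor series. H3K9me2 product detected by TR-FRET (Eu-antibody/streptavidin-APC, 665/615 ratio); IC50 fitted.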

[2] = tested on: KYSE-150 esophageal carcinoma cell line; experiment: In vitro cell-based assay: BrdU incorporation cell proliferation ELISA; parameters: species or system human; settings: KYSE-150 cells, 168 hours compound incubation, read-out: Cellular IC50
Method in brief: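 KYSE-150 cells (SMAD4 mut, TP53 mut) seeded at 2,000 cells/well, treated next day with 11-point dilutions (100 μM to 2 nM final) for 168 h. Proliferation read by 2 h BrdU labelling and colorimetric anti-BrdU ELISA at 450 nm; IC50 from curve fit.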

| Compound | pIC50 [1] | pIC50 ([2]; Homo sapiens) | pIC50 [2] |
| --- | --- | --- | --- |
| Cn1ccc2cc(Oc3nc(O)c4ccncc4n3)ccc21 [Example 2, 2-(1-Methyl-1H-indol-5-yloxy)-pyrido[3,4-d]pyrimidin-4-ol] | 6.00 to 7.00 | ≥ 7.00 | – |
| CN(c1ccc(Oc2nc(O)c3ccncc3n2)cc1)c1cccc(N2CCCC2)c1 [Example 48, 2-[4-(N-methyl-3-pyrrolidin-1-ylanilino)phenoxy]pyrido[3,4-d]pyrimidin-4-ol] | 6.00 to 7.00 | < 5.00 | – |
| CN(c1ccc(Oc2nc(O)c3ccncc3n2)cc1)c1cccc(N2CCOCC2)c1 [Example 19, 2-{4-[Methyl-(3-morpholin-4-yl-phenyl)-amino]-phenoxy}-pyrido[3,4-d]pyrimidin-4-ol] | 6.00 to 7.00 | 6.00 to 7.00 | – |
| CN(c1ccc(Oc2nc(O)c3ccncc3n2)cc1)c1ccc(S(C)(=O)=O)cc1 [Example 57, 2-[4-(N-methyl-4-methylsulfonylanilino)phenoxy]pyrido[3,4-d]pyrimidin-4-ol] | 6.00 to 7.00 | < 5.00 | – |
| CN(c1ccc(Oc2nc(O)c3ccncc3n2)cc1)c1ccc(C(F)(F)F)cc1 [Example 87, 2-[4-[N-methyl-4-(trifluoromethyl)anilino]phenoxy]pyrido[3,4-d]pyrimidin-4-ol] | 5.00 to 6.00 | 6.00 to 7.00 | – |
| CN(c1ccc(Oc2nc(O)c3ccncc3n2)cc1)c1ccccc1F [Example 96] | 6.00 to 7.00 | – | 5.00 to 6.00 |
| Oc1nc(Oc2ccc3c(ccn3CCc3ccccc3)c2)nc2cnccc12 [Example 3, 2-(1-Phenethyl-1H-indol-5-yloxy)-pyrido[3,4-d]pyrimidin-4-ol] | 6.00 to 7.00 | 6.00 to 7.00 | – |
| CN(CCc1ccccc1)c1ccc(Oc2nc(O)c3ccncc3n2)cc1 [Example 13, 2-{4-[Methyl(2-phenylethyl)amino]phenoxy}pyridino[3,4-d]pyrimidin-4-ol] | 6.00 to 7.00 | 5.00 to 6.00 | – |
| CC(C)Oc1ccc(N(C)c2ccc(Oc3nc(O)c4ccncc4n3)cc2)cc1 [Example 111, 2-[4-(N-methyl-4-propan-2-yloxyanilino)phenoxy]pyrido[3,4-d]pyrimidin-4-ol] | 6.00 to 7.00 | 6.00 to 7.00 | – |
| CNCC(C)c1ccc(N(C)c2ccc(Oc3nc(O)c4ccncc4n3)cc2)cc1 (centres unmarked) [Example 70, 2-[4-[N-methyl-4-[1-(methylamino)propan-2-yl]anilino]phenoxy]pyrido[3,4-d]pyrimidin-4-ol] | ≥ 7.00 | < 5.00 | – |
| CN(c1ccc(Oc2nc(O)c3ccncc3n2)cc1)c1cccc(N2CCC(N)CC2)c1 [Example 50, 2-[4-[3-(4-aminopiperidin-1-yl)-N-methylanilino]phenoxy]pyrido[3,4-d]pyrimidin-4-ol] | ≥ 7.00 | < 5.00 | – |
| CN(c1ccc(Oc2nc(O)c3ccncc3n2)cc1)c1ccc(N2CCCC2)cc1 [Example 49, 2-[4-(N-methyl-4-pyrrolidin-1-ylanilino)phenoxy]pyrido[3,4-d]pyrimidin-4-ol] | 5.00 to 6.00 | 6.00 to 7.00 | – |
| CCc1ccc(N(C)c2ccc(Oc3nc(O)c4ccncc4n3)cc2)nc1 [Example 97, 2-[4-[(5-ethylpyridin-2-yl)-methylamino]phenoxy]pyrido[3,4-d]pyrimidin-4-ol] | 6.00 to 7.00 | 6.00 to 7.00 | – |
| CN(c1ccccc1)c1cccc(Oc2nc(O)c3ccncc3n2)c1 [Example 7, 2-[3-(Methyl-phenyl-amino)-phenoxy]-pyrido[3,4-d]pyrimidin-4-ol] | 5.00 to 6.00 | 5.00 to 6.00 | – |
| CN(c1ccc(Oc2nc(O)c3ccncc3n2)cc1)c1ccc2nn(C)cc2c1 [Example 82, 2-[4-[methyl-(2-methylindazol-5-yl)amino]phenoxy]pyrido[3,4-d]pyrimidin-4-ol] | 6.00 to 7.00 | < 5.00 | – |
| CN(c1ccc(Oc2nc(O)c3ccncc3n2)cc1)c1ccc(C2=CCOCC2)cc1 [Example 98, 2-[4-[4-(3,6-dihydro-2H-pyran-4-yl)-N-methylanilino]phenoxy]pyrido[3,4-d]pyrimidin-4-ol] | 5.00 to 6.00 | < 5.00 | – |
| CC(C)c1ccc(N(C)c2ccc(Oc3nc(O)c4ccncc4n3)cc2)cn1 [Example 109, 2-[4-[methyl-(6-propan-2-ylpyridin-3-yl)amino]phenoxy]pyrido[3,4-d]pyrimidin-4-ol] | 6.00 to 7.00 | 5.00 to 6.00 | – |
| CN(C(=O)Cc1ccccc1)c1ccc(Oc2nc(O)c3ccncc3n2)cc1 [Example 24, N-[4-(4-hydroxy-pyrido[3,4-d]pyrimidin-2-yloxy)-phenyl]-N-methyl-2-phenyl-acetamide] | 6.00 to 7.00 | < 5.00 | – |
| Oc1nc(Oc2ccc3c(cnn3Cc3ccccc3)c2)nc2cnccc12 [Example 15, 2-(1-Benzyl-1H-indazol-5-yloxy)-pyridino[3,4-d]pyrimidin-4-ol] | 6.00 to 7.00 | 5.00 to 6.00 | – |
| CCc1ccc(N(C)c2ccc(Oc3nc(O)c4ccncc4n3)cc2)cc1 [Example 84, 2-[4-(4-ethyl-N-methylanilino)phenoxy]pyrido[3,4-d]pyrimidin-4-ol] | 6.00 to 7.00 | ≥ 7.00 | – |
| Oc1nc(Oc2ccc(N3CCOC(c4ccccc4)C3)cc2)nc2cnccc12 (centres unmarked) [Example 26, 2-[4-(2-phenyl-morpholin-4-yl)-phenoxy]-pyrido[3,4-d]pyrimidin-4-ol] | 6.00 to 7.00 | < 5.00 | – |
| CN1CCN(Cc2cccc(N(C)c3ccc(Oc4nc(O)c5ccncc5n4)cc3)c2)CC1 [Example 41, 2-(4-{methyl-[3-(4-methyl-piperazin-1-ylmethyl)-phenyl]-amino}-phenoxy)-pyrido[3,4-d]pyrimidin-4-ol] | ≥ 7.00 | 5.00 to 6.00 | – |
| Oc1nc(Oc2ccc(N3CCC(c4ccccc4)C3)cc2)nc2cnccc12 (centres unmarked) [Example 54, 2-[4-(3-phenylpyrrolidin-1-yl)phenoxy]pyrido[3,4-d]pyrimidin-4-ol] | 5.00 to 6.00 | < 5.00 | – |
| CC(c1ccc(N(C)c2ccc(Oc3nc(O)c4ccncc4n3)cc2)cc1)C1CC1 (centres unmarked) [Example 39, 2-(4-{[4-(1-cyclopropyl-ethyl)-phenyl]-methyl-amino}-phenoxy)-pyrido[3,4-d]pyrimidin-4-ol] | 5.00 to 6.00 | ≥ 7.00 | – |
| CN1CCN(c2ccc(N(C)c3ccc(Oc4nc(O)c5ccncc5n4)cc3)cc2)CC1 [Example 46, 2-[4-[N-methyl-4-(4-methylpiperazin-1-yl)anilino]phenoxy]pyrido[3,4-d]pyrimidin-4-ol] | 6.00 to 7.00 | < 5.00 | – |
